Results as given in ChEMBL document CHEMBL1201862, “PubChem BioAssay data set” (2004).
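Step 1: Grow cells in 96-well plates. Step 2: Expose to compound for 48 hours at 5 concentrations. Step 3: Interpolate endpoints linearly; if unreached, use highest concentration. GI50 is the concentration that inhibits growth by half.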 The source made the active and inactive calls. Rule as the data show it: active = GI50 up to about 1.1 µM and inactive = higher.

What was measured:
Experiment in all cases: DTP human tumour cell line panel, 48 h
LOX IMVI = tested on: LOX IMVI
DU-145 = tested on: DU-145
SN12C = tested on: SN12C
SK-MEL-2 = tested on: SK-MEL-2
SNB-75 = tested on: SNB-75
SK-MEL-5 = tested on: SK-MEL-5
OVCAR-8 = tested on: OVCAR-8
NCI-H460 = tested on: NCI-H460
ACHN = tested on: ACHN
KM12 = tested on: KM12
SK-OV-3 = tested on: SK-OV-3
786-0 = tested on: 786-0
UACC-257 = tested on: UACC-257
Hs-578T = tested on: Hs-578T
SW-620 = tested on: SW-620
NCI-H23 = tested on: NCI-H23
CCRF-CEM = tested on: CCRF-CEM
UO-31 = tested on: UO-31
A549 = tested on: A549
SK-MEL-28 = tested on: SK-MEL-28
COLO 205 = tested on: COLO 205
OVCAR-3 = tested on: OVCAR-3
HCC 2998 = tested on: HCC 2998
PC-3 = tested on: PC-3
HCT-116 = tested on: HCT-116
SF-539 = tested on: SF-539
MDA-MB-435 = tested on: MDA-MB-435
HOP-62 = tested on: HOP-62
A498 = tested on: A498
CAKI-1 = tested on: CAKI-1
UACC-62 = tested on: UACC-62
K562 = tested on: K562
BT-549 = tested on: BT-549
MDA-MB-231 = tested on: MDA-MB-231
OVCAR-5 = tested on: OVCAR-5
NCI-H522 = tested on: NCI-H522
U-251 = tested on: U-251
MOLT-4 = tested on: MOLT-4
HOP-92 = tested on: HOP-92
HL-60 = tested on: HL-60
MCF7 = tested on: MCF7
HCT-15 = tested on: HCT-15
SNB-19 = tested on: SNB-19
M14 = tested on: M14
NCI-H226 = tested on: NCI-H226
T47D = tested on: T47D
NCI/ADR-RES = tested on: NCI/ADR-RES
SF-295 = tested on: SF-295
Malme-3M = tested on: Malme-3M
MDA-N = tested on: MDA-N
OVCAR-4 = tested on: OVCAR-4
HT-29 = tested on: HT-29
RPMI-8226 = tested on: RPMI-8226
TK-10 = tested on: TK-10
IGROV-1 = tested on: IGROV-1
EKVX = tested on: EKVX
SF-268 = tested on: SF-268
RXF 393 = tested on: RXF 393
SR = tested on: SR

Structure (SMILES): CCOC(=O)C1(NC(=O)OC(C)(C)C)CCc2[nH]oc(=O)c2C1 (configuration not stated)
- GI50 (LOX IMVI): > 100 µM (inactive)
- GI50 (DU-145): > 100 µM (inactive)
- GI50 (SN12C): > 100 µM (inactive)
- GI50 (SK-MEL-2): > 100 µM (inactive)
- GI50 (SNB-75): > 100 µM (inactive)
- GI50 (SK-MEL-5): > 100 µM (inactive)
- GI50 (OVCAR-8): > 100 µM (inactive)
- GI50 (NCI-H460): > 100 µM (inactive)
- GI50 (ACHN): > 100 µM (inactive)
- GI50 (KM12): 9.95 µM (inactive)
- GI50 (SK-OV-3): > 100 µM (inactive)
- GI50 (786-0): > 100 µM (inactive)
- GI50 (UACC-257): > 100 µM (inactive)
- GI50 (Hs-578T): > 100 µM (inactive)
- GI50 (SW-620): > 100 µM (inactive)
- GI50 (NCI-H23): > 100 µM (inactive)
- GI50 (CCRF-CEM): > 100 µM (inactive)
- GI50 (UO-31): > 100 µM (inactive)
- GI50 (A549): > 100 µM (inactive)
- GI50 (SK-MEL-28): > 100 µM (inactive)
- GI50 (COLO 205): > 100 µM (inactive)
- GI50 (OVCAR-3): > 100 µM (inactive)
- GI50 (HCC 2998): > 100 µM (inactive)
- GI50 (PC-3): > 100 µM (inactive)
- GI50 (HCT-116): > 100 µM (inactive)
- GI50 (SF-539): > 100 µM (inactive)
- GI50 (MDA-MB-435): > 100 µM (inactive)
- GI50 (HOP-62): > 100 µM (inactive)
- GI50 (A498): > 100 µM (inactive)
- GI50 (CAKI-1): > 100 µM (inactive)
- GI50 (UACC-62): > 100 µM (inactive)
- GI50 (K562): > 100 µM (inactive)
- GI50 (BT-549): > 100 µM (inactive)
- GI50 (MDA-MB-231): > 100 µM (inactive)
- GI50 (OVCAR-5): > 100 µM (inactive)
- GI50 (NCI-H522): > 100 µM (inactive)
- GI50 (U-251): > 100 µM (inactive)
- GI50 (MOLT-4): > 100 µM (inactive)
- GI50 (HOP-92): > 100 µM (inactive)
- GI50 (HL-60): > 100 µM (inactive)
- GI50 (MCF7): > 100 µM (inactive)
- GI50 (HCT-15): > 100 µM
- GI50 (SNB-19): > 100 µM (inactive)
- GI50 (M14): > 100 µM (inactive)
- GI50 (NCI-H226): > 100 µM (inactive)
- GI50 (T47D): > 100 µM (inactive)
- GI50 (NCI/ADR-RES): > 100 µM (inactive)
- GI50 (SF-295): > 100 µM (inactive)
- GI50 (Malme-3M): > 100 µM (inactive)
- GI50 (MDA-N): > 100 µM (inactive)
- GI50 (OVCAR-4): > 100 µM (inactive)
- GI50 (HT-29): > 100 µM (inactive)
- GI50 (RPMI-8226): > 100 µM (inactive)
- GI50 (TK-10): > 100 µM (inactive)
- GI50 (IGROV-1): > 100 µM (inactive)
- GI50 (EKVX): > 100 µM (inactive)

Structure (SMILES): COCOc1cc(OC)c(Br)cc1C/C(=N/O)C(=O)OC
- GI50 (LOX IMVI): 73.5 µM (inactive)
- GI50 (DU-145): > 100 µM (inactive)
- GI50 (SN12C): > 100 µM (inactive)
- GI50 (SK-MEL-2): 88.5 µM (inactive)
- GI50 (SNB-75): 7.6 µM (inactive)
- GI50 (SK-MEL-5): 67.8 µM (inactive)
- GI50 (OVCAR-8): > 100 µM (inactive)
- GI50 (NCI-H460): 71.9 µM (inactive)
- GI50 (ACHN): > 100 µM (inactive)
- GI50 (KM12): > 100 µM (inactive)
- GI50 (SK-OV-3): > 100 µM (inactive)
- GI50 (786-0): > 100 µM (inactive)
- GI50 (UACC-257): 46.6 µM (inactive)
- GI50 (Hs-578T): 15.9 µM (inactive)
- GI50 (SW-620): > 100 µM (inactive)
- GI50 (NCI-H23): 90.4 µM (inactive)
- GI50 (CCRF-CEM): 37.8 µM (inactive)
- GI50 (UO-31): 53.7 µM (inactive)
- GI50 (A549): 91.6 µM (inactive)
- GI50 (SK-MEL-28): > 100 µM (inactive)
- GI50 (COLO 205): > 100 µM (inactive)
- GI50 (OVCAR-3): 43.1 µM (inactive)
- GI50 (HCC 2998): > 100 µM (inactive)
- GI50 (PC-3): 42.9 µM (inactive)
- GI50 (HCT-116): > 100 µM (inactive)
- GI50 (SF-539): > 100 µM (inactive)
- GI50 (MDA-MB-435): 29.6 µM (inactive)
- GI50 (HOP-62): 67.3 µM (inactive)
- GI50 (CAKI-1): 48.8 µM (inactive)
- GI50 (UACC-62): 40.6 µM (inactive)
- GI50 (K562): 49.7 µM (inactive)
- GI50 (BT-549): 70.1 µM (inactive)
- GI50 (MDA-MB-231): 42.2 µM (inactive)
- GI50 (OVCAR-5): > 100 µM (inactive)
- GI50 (NCI-H522): 37.9 µM (inactive)
- GI50 (SF-268): 39.8 µM (inactive)
- GI50 (U-251): > 100 µM (inactive)
- GI50 (MOLT-4): 27.5 µM (inactive)
- GI50 (HL-60): 52.7 µM (inactive)
- GI50 (MCF7): 95.5 µM (inactive)
- GI50 (HCT-15): > 100 µM
- GI50 (SNB-19): > 100 µM (inactive)
- GI50 (M14): > 100 µM (inactive)
- GI50 (NCI-H226): > 100 µM (inactive)
- GI50 (RXF 393): 28.5 µM (inactive)
- GI50 (T47D): 15.8 µM (inactive)
- GI50 (NCI/ADR-RES): 34 µM (inactive)
- GI50 (SF-295): > 100 µM (inactive)
- GI50 (Malme-3M): 25.5 µM (inactive)
- GI50 (SR): 34.7 µM (inactive)
- GI50 (MDA-N): 28 µM (inactive)
- GI50 (OVCAR-4): 52.5 µM (inactive)
- GI50 (HT-29): > 100 µM (inactive)
- GI50 (TK-10): 35.1 µM (inactive)
- GI50 (IGROV-1): 56.4 µM (inactive)
- GI50 (EKVX): 49 µM (inactive)
